Data taken from patent US20050070570A1, “Novel potassium channels modulators” (4SC AG, priority 2003, published 2005).

Columns and labels:
[1] = biological target: BK channels (CHO cells permanently transfected with cloned hSlo, α-hSlo and β-bSlo) (Homo sapiens, UniProt Q12791); test: Em-Assay: fluorescence membrane potential assay with voltage sensitive dye DiBAC(4)3; format: cell-based; conditions: ratio of the compound effect (50 μM) compared to the maximal effect of NS004 (25 or 50 μM)
Description: The large conductance, voltage-dependent and Ca^2+-activated potassium channel BK is a potassium selective ion channel and belongs to the subfamily of KCa channels. Four BK alpha-subunits form a functional channel that can be regulated by intracellular Ca^2+ concentration, membrane voltage, and other mechanisms like phosphorylation states or beta subunits. To test the biological activity of the compounds, we applied two different techniques, a fluorescence based assay using a voltage sensitive dye (Em-Assay) as well as exploiting electrophysiological methods.
CHO cells permanently transfected with cloned hSlo (α-hSlo and β-bSlo), yielding typical BK potassium currents (Zhou et al., Pflügers Arch., 436: 725-734 (1998), were used for the evaluation of compound activity. Activation or inhibition of BK channels in these cells leads to a change of the electrochemical gradient causing a hyperpolarized or depolarised membrane potential, respectively.
To determine changes in the membrane potential of the cells we used the voltage sensitive dye DiBaC(4)3 (Molecular Probes) in a kinetic assay system using a fluorescent plate reader (Manning and Sontheimer, J. Neurosci. Meth., 91: 73-81 (1999). The anionic bis-oxonol DiBAC(4)3 is a voltage sensitive dye which partitions from the extracellular environment into the cell where it reversibly binds to intracellular proteins, a kinetic process depending on the membrane potential of the cell. At depolarised potentials (i.e. at a reduced K^+ efflux due to blocked K^+ channels) the dye accumulates in the cell leading to an increased fluorescence intensity, due to its increased fluorescence if bound to cellular proteins. At hyperpolarized potentials (i.e. at an increased K^+ efflux due to the opening of K^+ channels), the dye partitions out of the cell causing a decreased fluorescence intensity.
hslo transfected CHO cells where maintained in DMEM supplemented with 10% FCS, 250 μg/ml Geneticin, 100 μg/m Hygromycin, 1×HT-Supplement, and 1×Non-essential Amino Acids and cultured in a humidified CO2 incubator. After trypsination, cells where plated with a density of 5×10^4 cells per well on a clear 96-well plate and incubated for 24 h. Cells where washed once with PBS, once with PBS containing 20 mM HEPES (adjusted to pH 7.4 with NaOH) and 2 μM DiBAC(4)3 (DPBS-DiBAC solution). 180 μl of the dPBS-DiBAC solution was then added to the cells and the plate incubated for 30-60 min at 37° C. During this time the dye could partition into the cells and reach a certain steady-state distribution, depending on the resting membrane potential. Test and reference compounds were stored as DMSO stock solutions and diluted in dPBS-DiBAC solution to the desired concentration.
Fluorescence intensity (Ex.: 485 nm/Em.: 520 nm) of each well was detected in the plate reader (Fluostar, BMG) every 60 seconds. After recording the baseline fluorescence for 7 minutes, 20 μl test- and reference compounds were added and the fluorescence intensity was detected for additional 15 minutes. Background was subtracted, data values were normalized and expressed as a change in fluorescence intensity against time. The change in fluorescence intensity caused by the test compounds was evaluated, compared to the effect of the reference compound NS004, and the ratio was determined (see Table I).

[2] = biological target: BK currents (CHO cells permanently transfected with cloned α-hSlo and β-bSlo) (Homo sapiens, UniProt Q12791); test: Electrophysiological studies: whole-cell patch-clamp of BK currents; format: cell-based; conditions: ratio of current increase after application of compound (20 μM) relative to the control current before compound application; steady-state
Description: Electrophysiological Studies:
CHO cells permanently transfected with cloned α-hSlo and β-bSlo were maintained as described above and used for electrophysiological characterisation. The whole-cell configuration of the patch-lamp technique was used to determine the effect of modulators on BK currents in these cells. The cell line expressing functional BK currents (Zhou et al., Pflügers Arch. 436, p. 725 (1998)) were plated onto glass cover slips with a density of 1-5×10^4 cells/cover slip, incubated (37° C., 5% CO2) and used for patch-lamp experiments within 24-48 h. Cells were bathed in mammalian ringer solutions containing (in mM): 160NaCl, 4.5KCl, 2CaCl2, 1MgCl2, 10HEPES, adjusted to pH 7.4, 290-310 mOsm. The internal pipette solution contained (in mM): 160KCl, 2CaCl2, 1MgCl2, 10 HEPES, EGTA was added to reach a free [Ca^2+]internal=1×10^−6M, adjusted to pH 7.2, 290-310 mOsm. Borosilicate pipettes with a resistance of 2-3 MΩ were filled with the internal solution and mounted on an appropriate holder. […]
After addition of the compounds to the bath solution their modulating effect was determined by the increase or decrease of specific BK currents after reaching steady-state relative to the BK current before application of drugs (see Table II).

Chain of BK channels (CHO cells permanently transfected with cloned hSlo, α-hSlo and β-bSlo) (Q12791 whole entry): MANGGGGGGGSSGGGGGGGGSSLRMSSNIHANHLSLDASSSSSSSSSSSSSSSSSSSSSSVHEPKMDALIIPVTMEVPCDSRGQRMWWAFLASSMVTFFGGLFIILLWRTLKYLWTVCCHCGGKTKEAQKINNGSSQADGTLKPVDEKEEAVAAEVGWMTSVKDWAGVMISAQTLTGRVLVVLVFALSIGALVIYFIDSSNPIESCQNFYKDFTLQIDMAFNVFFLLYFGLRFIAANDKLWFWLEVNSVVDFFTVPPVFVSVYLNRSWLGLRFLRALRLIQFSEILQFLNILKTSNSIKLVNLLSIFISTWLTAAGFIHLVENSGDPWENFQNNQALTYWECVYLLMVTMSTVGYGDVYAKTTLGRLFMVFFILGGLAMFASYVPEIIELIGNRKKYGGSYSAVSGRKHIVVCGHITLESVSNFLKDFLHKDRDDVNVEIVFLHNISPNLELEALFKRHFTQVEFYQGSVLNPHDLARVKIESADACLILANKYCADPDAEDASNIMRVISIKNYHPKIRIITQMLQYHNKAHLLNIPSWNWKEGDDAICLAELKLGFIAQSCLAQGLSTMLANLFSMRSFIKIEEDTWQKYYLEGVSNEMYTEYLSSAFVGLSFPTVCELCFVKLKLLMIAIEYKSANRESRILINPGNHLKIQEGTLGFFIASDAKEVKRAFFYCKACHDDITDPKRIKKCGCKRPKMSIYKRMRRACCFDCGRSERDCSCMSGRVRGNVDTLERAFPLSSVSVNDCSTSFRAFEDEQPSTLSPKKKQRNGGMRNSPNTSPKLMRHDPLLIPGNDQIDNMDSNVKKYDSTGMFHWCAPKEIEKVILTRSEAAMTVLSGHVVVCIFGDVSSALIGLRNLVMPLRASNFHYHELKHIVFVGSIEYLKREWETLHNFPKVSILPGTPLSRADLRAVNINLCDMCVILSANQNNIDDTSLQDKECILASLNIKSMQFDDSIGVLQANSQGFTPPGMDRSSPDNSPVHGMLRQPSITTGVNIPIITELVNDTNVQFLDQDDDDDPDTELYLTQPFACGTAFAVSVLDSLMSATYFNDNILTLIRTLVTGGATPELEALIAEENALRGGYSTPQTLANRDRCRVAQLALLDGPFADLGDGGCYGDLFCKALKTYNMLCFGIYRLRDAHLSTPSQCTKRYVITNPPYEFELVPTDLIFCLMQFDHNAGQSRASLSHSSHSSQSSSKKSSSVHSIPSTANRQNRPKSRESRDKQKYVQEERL
Chain of BK channels (CHO cells permanently transfected with cloned hSlo, α-hSlo and β-bSlo) (Q28067 whole entry partner): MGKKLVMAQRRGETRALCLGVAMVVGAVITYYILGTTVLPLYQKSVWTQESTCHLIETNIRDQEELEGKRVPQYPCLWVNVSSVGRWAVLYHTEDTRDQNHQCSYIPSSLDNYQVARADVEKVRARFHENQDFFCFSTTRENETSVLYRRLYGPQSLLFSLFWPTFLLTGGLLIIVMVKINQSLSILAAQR
Chain of BK currents (CHO cells permanently transfected with cloned α-hSlo and β-bSlo) (Q12791 whole entry): as the sequence (Q12791 whole entry) above
Chain of BK currents (CHO cells permanently transfected with cloned α-hSlo and β-bSlo) (Q28067 whole entry partner): as the sequence (Q28067 whole entry partner) above

Em effect [1] | Effect [2] | Compound
+ (0-1=+) | – | COc1cc2c(c(OC)c1)C(c1ccc(O)cc1)N(C(=O)c1ccno1)CC2 (stereo not drawn) [Compound 27, [1-(4-Hydroxy-phenyl)-6,8-dimethoxy-3,4-dihydro-1H-isoquinolin-2-yl]-isoxazol-5-yl-methanone]
++ (>1-1.5=++) | – | COc1cc2c(c(OC)c1)C(c1cccc(OC(F)(F)F)c1)N(C(C)=O)CC2 (stereo not drawn) [Compound 29, 1-[6,8-Dimethoxy-1-(3-trifluoromethoxy-phenyl)-3,4-dihydro-1H-isoquinolin-2-yl]-ethanone]
+ (0-1=+) | + (<1.2 = +) | COc1cc2c(c(OC)c1)C(c1cccc(OC(F)(F)F)c1)N(C(=O)c1ccc(OC(F)(F)F)cc1)CC2 (stereo not drawn) [Compound 30, [6,8-Dimethoxy-1-(3-tifluoromethoxy-phenyl)-3,4-dihydro-1H-isoquinolin-2-yl](4-trifluoromethoxy-phenyl)-metanone]
+ (0-1=+) | – | COc1ccc(C(=O)N2CCc3cc(OC)cc(OC)c3C2c2cccc(OC(F)(F)F)c2)cc1 (stereo not drawn) [Compound 31, [6,8-Dimethoxy-1-(3-trifluoromethoxy-phenyl)-3,4-dihydro-1H-isoquinolin-2-yl]-(4-methoxy-phenyl)-methanone]
+ (0-1=+) | – | COc1cc2c(c(OC)c1)C(c1cccc(OC(F)(F)F)c1)N(C(=O)c1ccc(NC(C)=O)cc1)CC2 (stereo not drawn) [Compound 32, N-{4-[6,8-Dimethoxy-1-(3-trifluoro-methoxy-phenyl)-3,4-dihydro-1H-isoquinoline-2-carbonyl]-phenyl}-acetamide]
+ (0-1=+) | – | COc1cc2c(c(OC)c1)C(c1cccc(OC(F)(F)F)c1)N(S(=O)(=O)c1cc(C(F)(F)F)ccc1[N+](=O)[O-])CC2 (stereo not drawn) [Compound 34, 6,8-Dimethoxy-2-(2-nitro-5-trifluoromethyl-benzenesulfonyl)-1-(3-trifluoromethoxy-phenyl)-1,2,3,4-tetrahydro-isoquinoline]
+ (0-1=+) | – | COc1cc2c(c(OC)c1)C(c1cccc(OC(F)(F)F)c1)N(S(=O)(=O)c1cc(C(F)(F)F)cc(C(F)(F)F)c1)CC2 (stereo not drawn) [Compound 35, 2-(3,5-Bis-trifluoromethyl-benzenesulfonyl)-6,8-dimethoxy-1-(3-trifluoromethoxy-phenyl)-1,2,3,4-tetrahydroisoquinoline]
++ (>1-1.5=++) | ++ (>1.2 = ++) | COc1cc2c(c(OC)c1)C(C)N(S(=O)(=O)c1cccc([N+](=O)[O-])c1)CC2 (stereo not drawn) [Compound 36, 6,8-Dimethoxy-1-methyl-2-(3-nitro-benzenesulfonyl)-1,2,3,4-tetrahydro-isoquinoline]
+ (0-1=+) | – | COc1cc2c(c(OC)c1)C(C)N(S(=O)(=O)c1cc(C(F)(F)F)cc(C(F)(F)F)c1)CC2 (stereo not drawn) [Compound 37, 2-(3,5-Bis-trifluoromethyl-benzenesulfonyl)-6,8-dimethoxy-1-methyl-1,2,3,4-tetra-hydroisoquinoline]
+ (0-1=+) | – | COc1cc2c(c(OC)c1)C(C)N(C(=O)c1cccc([N+](=O)[O-])c1)CC2 (stereo not drawn) [Compound 38, (6,8-Dimethoxy-1-methyl-3,4-dihydro-1H-isoquinolin-2-yl)-(3-nitro-phenyl)-methanone]
+ (0-1=+) | – | COc1cc2c(c(OC)c1)C(C)N(C(=O)c1ccc(OC(F)(F)F)cc1)CC2 (stereo not drawn) [Compound 39, (6,8-Dimethoxy-1-methyl-3,4-dihydro-1H-isoquinolin-2-yl)-(4-trifluoro-methoxy-phenyl)-methanone]
+ (0-1=+) | – | COc1ccc(C(=O)N2CCc3cc(OC)cc(OC)c3C2C)cc1 (stereo not drawn) [Compound 40, (6,8-Dimethoxy-1-methyl-3,4-dihydro-1H-isoquinolin-2-yl)-(4-methoxy-phenyl)-methanone]
+ (0-1=+) | – | (3,5-Bis-trifluoromethoxy-phenyl)-[6,8-dimethoxy-1-(3-trifluoromethoxy-phenyl)-3,4-dihydro-1H-iso-quinolin-2-yl]-methanone [Compound 33]
